In US20040014637A1, “Mechanism for the inactivation of insulin receptor and uses in the treatment of type II diabetes” (McGill University, priority 1998, published 2004):
Entries after “also recorded” stand apart in the source; their conditions may differ.

What was measured:
[1] = test system: 125I-hGH binding; test: 125I-hGH binding after preincubating endosomes with ATP; set-up: species or system rat; conditions: preincubation 37° C. 15 min, percent of control
Procedure: (1992) J. Biol. Chem. 267, 11215-11221). Livers were rapidly excised, placed in ice-cold homogenizing buffer (50 mM HEPES (pH 7.4), 0.25 M sucrose, 1 mM PMSF, 1 MM MgCl2, 1 mM benzamidine) and minced before homogenization. Combined ENs and PM fractions were prepared (Faure et al. (1992) J. Biol. Chem. 267, 11215-11221) except that the buffer used throughout was that in which the livers were minced (see above). These subcellular fractions have been characterized in detail both morphologically and biochemically. […] I. et al. (1982) J. Biol. Chem. 257, 5789-5799). Protein content in the fractions was determined by a modification of Bradford's method using serum albumin as a standard (Khan, M. N. et al. […] In the present study we wished to assess whether other processes might be involved in reducing the association of intraendosomal insulin with its receptor. We examined the effect of incubating intact ENs containing IR with increasing concentrations of ATP on subsequently measured insulin and hGH binding in both solubilized and WGA-purified receptors. […] [table]

[2] = biological target: T1, insulin receptor kinase (IRK) (Rattus norvegicus, UniProt P15127); test: Insulin receptor kinase (IRK) exogenous tyrosine kinase activity, Poly (Glu:Tyr) (4:1) substrate, WGA-purified IRK from preincubated cell fractions; assay type: biochemical; conditions: for IRK activity of ENs containing IR (FIG. 1A): versus absence of ATP
T1 construct: from tissue; host or cells: rat liver; endosome (EN) and plasma membrane (PM) fractions

[3] = biological target: T2, insulin receptor kinase (IRK) β-subunit (Rattus norvegicus, UniProt P15127); test: IRK β-subunit phosphotyrosine content (αPY immunoblot of WGA eluates); assay type: biochemical
T2 construct: from tissue; host or cells: rat liver; endosome (EN) and plasma membrane (PM) fractions
Procedure: The phosphotyrosine content of endosomal IRs (ENs containing IR) was determined by subjecting lectin column (WGA-Sepharose™)-purified preparations to SDS-PAGE and immunoblotting with α960 and αPY (Faure et al. (1992) J. Biol. Chem. 267, 11215-11221). […] FIG. 1B illustrates the effect of ATP on β subunit phosphotyrosine content. WGA eluates (5 μg protein) were subjected to SDS-PAGE in 7.5% gels followed by transfer of proteins to Immobilon-P membranes. Membranes were probed with αPY or α960 antibodies followed by incubation with ^125I-GAR as second antibody and exposed for autoradiography.

[4] = biological target: T3, EGF receptor (Rattus norvegicus, UniProt G3V6K6); test: EGF receptor autophosphorylation in endosomes in the presence and absence of ATP; assay type: biochemical; conditions: ENs from EGF-treated rats incubated with 5 mM ATP
T3 construct: from tissue; host or cells: rat liver endosomes after EGF injection in vivo
Procedure: EGF (10 μg/100 g body weight) was injected via the jugular vein into anesthetized rats. The animals were sacrificed by decapitation 15 mins later and ENs containing EGF receptor were prepared as noted above. Resuspended ENs containing EGF receptor were incubated for 15 mins with 5 mM ATP after which auto-phosphorylation was initiated by adding ^32P-ATP. The reaction was stopped after 15 mins of incubation at 37° C. by adding Laemmli sample buffer after which aliquots (100 μg protein) were subjected to SDS-PAGE, alkali digestion, and radioautography as described previously (Faure, R. et al. (1992) J. Biol. Chem. 267, 11215-11221).
We then determined whether preincubation with ATP attenuated EGF receptor autophosphorylation. […] EN fractions, prepared 15 mins after injecting rats with EGF (10 μg/100 g body weight), were incubated in the presence or absence of ATP (5 mM) prior to conducting autophosphorylation with ^32P-ATP, SDS-PAGE, and autoradiography.

[5] = preincubation 1 mM ATP 15 min, second incubation 5 mM ATP
[6] = sequential incubations in 1 mM ATP

T1 sequence (P15127 27-759 limits assumed): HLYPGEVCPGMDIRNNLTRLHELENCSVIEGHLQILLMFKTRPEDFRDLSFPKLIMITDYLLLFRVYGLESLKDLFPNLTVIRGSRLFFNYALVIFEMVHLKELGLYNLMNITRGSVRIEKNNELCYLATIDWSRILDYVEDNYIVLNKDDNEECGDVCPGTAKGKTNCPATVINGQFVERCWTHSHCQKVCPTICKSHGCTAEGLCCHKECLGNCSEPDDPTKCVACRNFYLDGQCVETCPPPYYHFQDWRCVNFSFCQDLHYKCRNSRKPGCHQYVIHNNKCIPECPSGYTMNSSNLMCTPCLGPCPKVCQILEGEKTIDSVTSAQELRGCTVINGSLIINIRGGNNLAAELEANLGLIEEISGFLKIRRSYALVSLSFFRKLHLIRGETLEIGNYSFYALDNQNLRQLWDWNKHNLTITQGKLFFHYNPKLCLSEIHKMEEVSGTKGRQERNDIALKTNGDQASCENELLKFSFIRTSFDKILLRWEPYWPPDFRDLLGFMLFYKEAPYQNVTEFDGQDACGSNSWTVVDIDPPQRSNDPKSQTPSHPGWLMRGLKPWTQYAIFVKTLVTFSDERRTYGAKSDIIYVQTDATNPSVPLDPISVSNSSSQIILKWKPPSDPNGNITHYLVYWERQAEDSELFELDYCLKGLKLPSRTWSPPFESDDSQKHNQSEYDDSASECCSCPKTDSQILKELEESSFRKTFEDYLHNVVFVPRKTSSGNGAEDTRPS
T1 sequence (P15127 764-1383 limits assumed): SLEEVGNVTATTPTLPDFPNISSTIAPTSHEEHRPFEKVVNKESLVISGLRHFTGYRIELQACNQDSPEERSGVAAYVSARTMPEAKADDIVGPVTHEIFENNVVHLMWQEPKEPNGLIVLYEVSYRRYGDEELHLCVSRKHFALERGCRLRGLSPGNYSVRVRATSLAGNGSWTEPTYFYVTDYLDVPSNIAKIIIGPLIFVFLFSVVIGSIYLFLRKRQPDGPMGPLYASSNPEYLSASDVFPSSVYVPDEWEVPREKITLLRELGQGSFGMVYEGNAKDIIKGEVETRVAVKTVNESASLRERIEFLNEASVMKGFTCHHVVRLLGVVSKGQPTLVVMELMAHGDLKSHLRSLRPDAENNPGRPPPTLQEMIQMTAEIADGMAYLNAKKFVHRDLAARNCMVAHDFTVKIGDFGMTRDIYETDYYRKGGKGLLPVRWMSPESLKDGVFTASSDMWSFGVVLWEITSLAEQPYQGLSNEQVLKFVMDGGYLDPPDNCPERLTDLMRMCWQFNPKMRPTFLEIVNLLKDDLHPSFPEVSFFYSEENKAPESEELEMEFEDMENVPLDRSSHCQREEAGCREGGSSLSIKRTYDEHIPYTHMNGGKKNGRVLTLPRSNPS
T2 sequence (P15127 27-759 limits assumed): as the sequence (P15127 27-759 limits assumed) above
T2 sequence (P15127 764-1383 limits assumed): as the sequence (P15127 764-1383 limits assumed) above
T3 sequence (G3V6K6 25-1209): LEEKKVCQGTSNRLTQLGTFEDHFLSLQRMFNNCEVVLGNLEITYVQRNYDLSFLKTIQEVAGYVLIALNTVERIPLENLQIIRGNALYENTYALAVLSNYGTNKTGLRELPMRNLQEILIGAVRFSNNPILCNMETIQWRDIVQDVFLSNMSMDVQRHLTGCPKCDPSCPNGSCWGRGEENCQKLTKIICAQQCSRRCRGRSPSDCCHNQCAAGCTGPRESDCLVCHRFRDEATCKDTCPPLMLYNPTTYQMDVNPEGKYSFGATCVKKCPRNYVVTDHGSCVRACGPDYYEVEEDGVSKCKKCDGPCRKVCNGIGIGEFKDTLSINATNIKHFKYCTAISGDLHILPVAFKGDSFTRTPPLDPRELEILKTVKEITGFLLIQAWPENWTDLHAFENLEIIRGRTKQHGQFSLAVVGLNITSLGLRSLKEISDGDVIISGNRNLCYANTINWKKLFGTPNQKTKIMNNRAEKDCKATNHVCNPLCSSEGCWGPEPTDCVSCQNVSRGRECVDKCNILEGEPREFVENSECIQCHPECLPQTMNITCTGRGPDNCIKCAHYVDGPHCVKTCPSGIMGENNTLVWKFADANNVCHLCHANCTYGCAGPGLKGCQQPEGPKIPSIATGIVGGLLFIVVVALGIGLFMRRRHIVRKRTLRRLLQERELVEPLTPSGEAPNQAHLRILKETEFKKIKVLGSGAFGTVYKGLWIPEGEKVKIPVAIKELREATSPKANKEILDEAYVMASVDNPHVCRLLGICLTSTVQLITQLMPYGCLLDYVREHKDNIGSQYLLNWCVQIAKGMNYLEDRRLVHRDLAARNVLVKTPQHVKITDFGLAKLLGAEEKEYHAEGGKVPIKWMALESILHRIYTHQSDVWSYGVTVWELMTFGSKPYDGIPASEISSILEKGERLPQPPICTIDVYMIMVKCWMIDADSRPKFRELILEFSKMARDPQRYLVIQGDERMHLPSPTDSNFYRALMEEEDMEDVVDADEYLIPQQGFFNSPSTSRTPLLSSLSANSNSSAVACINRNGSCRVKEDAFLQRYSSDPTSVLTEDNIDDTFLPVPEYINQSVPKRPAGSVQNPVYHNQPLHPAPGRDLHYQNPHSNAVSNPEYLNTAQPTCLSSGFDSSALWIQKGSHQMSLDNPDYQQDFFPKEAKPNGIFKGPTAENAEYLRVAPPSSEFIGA

## Nc1ncnc2c1ncn2[C@@H]1O[C@H](COP(=O)(O)OP(=O)(O)OP(=O)(O)O)[C@@H](O)[C@H]1O [ATP, adenosine 5′triphosphate]
[1]; ATP 0.1 mM
  125I-hGH specific binding, WGA-purified endosomes: 88.7 ± 3.4%
  125I-hGH specific binding, solubilized endosomes: 105.0 ± 5.1%
[1]; ATP 1 mM
  125I-hGH specific binding, WGA-purified endosomes: 93.3 ± 5.1%
  125I-hGH specific binding, solubilized endosomes: 84.4 ± 6.6%
[1]; ATP 10 mM
  125I-hGH specific binding, WGA-purified endosomes: 75.2 ± 3.5%
  125I-hGH specific binding, solubilized endosomes: 98.3 ± 3.5%
[2]; 5 mM ATP, 15 min 37° C.
  IRK activity of ENs containing IR (FIG. 1A): marked decrease
[2]; 10 mM ATP, 15 min 37° C.
  IRK activity of ENs containing IR: virtually abolished; also recorded: suppressed IRK activity completely
[2]; 0.1 and 1.0 mM ATP, 15 min 37° C.
  IRK activity of ENs containing IR (FIG. 1A): increase
[2]; PM containing IR preincubated with ATP (1 and 10 mM), 15 min 37° C.
  Activity of WGA-purified IRK from plasma membrane (PM) (FIG. 3A): augmentation of activity
[2]; [5]
  IRK activity after sequential incubations (FIG. 7B): marked reduction
[2]; [6]
  IRK activity after sequential incubations: no deleterious effect
[3]; 1 mM ATP, 15 min 37° C.
  IRK phosphotyrosine content (FIG. 1B): markedly increased
[3]; 5 mM ATP, compared to 1 mM ATP
  IRK phosphotyrosine content (FIG. 1B): significantly reduced
[3]; 10 mM ATP, compared to 1 mM ATP
  IRK phosphotyrosine content (FIG. 1B): virtually abolished
[3]; [5]
  IRK phosphotyrosine content after sequential incubations (FIG. 7A): substantial retention
[3]; [6]
  IRK phosphotyrosine content after sequential incubations: no deleterious effect
[4]
  32P-labeling (autophosphorylation) of the EGF receptor (FIG. 3B): no significant attenuation
